How the values were obtained:
Format in all cases: biochemical
BGL-2T* [1] = molecular target: T1, BGL-2T* (Talaromyces amestolkiae, UniProt A0A186NAE7); experiment: glucose release (Glucose-TR kit), Lineweaver-Burk; conditions: 100 mM sodium acetate pH 4, optimal temperature (70 °C), BSA; read-out: K m (mM) / BGL-2T*
T1 construct: gene bgl2; recombinant truncated form lacking linker and CBD; stop codon in retained third intron; pPIC9, Pichia pastoris KM71, secreted; monomer
Description: glucose release (Glucose-TR kit), Lineweaver-Burk on BGL-2T*

BGL-2T* [2] = molecular target: T1, BGL-2T*; experiment: o-nitrophenol release, Lineweaver-Burk; conditions: acetate buffer, optimal pH (3-4) and temperature (70 °C), BSA; read-out: K m (mM) / BGL-2T*
Description: o-nitrophenol release, Lineweaver-Burk on BGL-2T*

BGL-2T* [3] = molecular target: T1, BGL-2T*; experiment: p-nitrophenol release at […] nm, Lineweaver-Burk; conditions: acetate buffer, optimal pH (3-4) and temperature (70 °C), BSA; read-out: K m (mM) / BGL-2T*

T1 sequence (A0A186NAE7 1-700 limits assumed): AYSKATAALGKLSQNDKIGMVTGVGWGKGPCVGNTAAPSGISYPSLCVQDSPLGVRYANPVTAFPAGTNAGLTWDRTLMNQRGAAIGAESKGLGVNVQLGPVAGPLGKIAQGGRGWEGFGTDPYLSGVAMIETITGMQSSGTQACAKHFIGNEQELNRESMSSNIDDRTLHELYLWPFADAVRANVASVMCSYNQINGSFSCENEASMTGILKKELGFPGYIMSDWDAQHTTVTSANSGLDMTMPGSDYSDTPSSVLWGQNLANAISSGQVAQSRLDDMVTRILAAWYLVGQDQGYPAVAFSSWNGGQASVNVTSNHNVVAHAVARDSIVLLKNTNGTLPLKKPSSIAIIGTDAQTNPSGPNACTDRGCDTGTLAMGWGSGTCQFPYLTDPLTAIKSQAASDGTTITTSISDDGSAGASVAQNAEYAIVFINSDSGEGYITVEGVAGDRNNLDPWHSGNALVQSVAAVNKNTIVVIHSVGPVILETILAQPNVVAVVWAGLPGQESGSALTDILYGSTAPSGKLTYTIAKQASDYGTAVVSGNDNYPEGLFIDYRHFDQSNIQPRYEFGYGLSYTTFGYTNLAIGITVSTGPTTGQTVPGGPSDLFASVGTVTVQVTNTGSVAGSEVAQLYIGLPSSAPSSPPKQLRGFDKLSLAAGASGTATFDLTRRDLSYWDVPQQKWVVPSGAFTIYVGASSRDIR

Km (BGL-2T* [1])	Compound	also measured
0.68 ± 0.01 mM	OC[C@H]1O[C@@H](O[C@H]2[C@H](O)[C@@H](O)[C@H](O[C@H]3[C@H](O)[C@@H](O)[C@H](O[C@H]4[C@H](O)[C@@H](O)[C@H](O[C@H]5[C@H](O)[C@@H](O)C(O)O[C@@H]5CO)O[C@@H]4CO)O[C@@H]3CO)O[C@@H]2CO)[C@H](O)[C@@H](O)[C@@H]1O (some centres unmarked) [Cellopentaose]	–
–	O=[N+]([O-])c1ccccc1O[C@@H]1O[C@H](CO)[C@@H](O)[C@H](O)[C@H]1O [oNPG, o-nitrophenyl-β-D-glucopyranoside]	Km (BGL-2T* [2]): 0.67 ± 0.04 mM
–	O=[N+]([O-])c1ccc(O[C@@H]2O[C@H](CO)[C@@H](O)[C@H](O)[C@H]2O)cc1 [pNPG, p-nitrophenyl-β-D-glucopyranoside]	Km (BGL-2T* [3]): 0.34 ± 0.02 mM
1.42 ± 0.06 mM	OC[C@H]1O[C@@H](O[C@H]2[C@H](O)[C@@H](O)[C@H](O[C@H]3[C@H](O)[C@@H](O)C(O)O[C@@H]3CO)O[C@@H]2CO)[C@H](O)[C@@H](O)[C@@H]1O (some centres unmarked) [Cellotriose]	–
0.49 ± 0.03 mM	OC[C@H]1O[C@@H](O[C@H]2[C@H](O)[C@@H](O)[C@H](O[C@H]3[C@H](O)[C@@H](O)[C@H](O[C@H]4[C@H](O)[C@@H](O)C(O)O[C@@H]4CO)O[C@@H]3CO)O[C@@H]2CO)[C@H](O)[C@@H](O)[C@@H]1O (some centres unmarked) [Cellotetraose]	–
